# According to US8076485B2, “Methylphenidate derivatives and uses of them” (priority 2005, dated 2011):
# What was measured:
# [1] = threo versus erythro methylphenidate; cited from earlier work
# erythropoietin (EPO) = assay: Erythropoietin (EPO) release from HepG2 cells (ELISA); type: cell-based, human; conditions: HepG2, hypoxia (5% CO2), 24 hours; Cpd II 15 μg/ml, LY 294002 25 μM; hypoxia alone 108.39 ± 2.81
# Description: HepG2 is a human hepatic cancer cell line, which was obtained from ATCC. HepG2 cells were grown to confluence in 25 cm^2 flasks in IMDM medium containing 10% FCS. Then, the cells were trypsinized as follows. The medium in each flask was aspirated and replaced with 5 ml of 0.025% trypsin/EDTA (Cambrex). The cells were monitored on a microscope until they no longer adhered to the flasks. Then, 5 ml of trypsin neutralizing solution (TNS) (Cambrex) were added to each flask to stop the reaction. The cell suspension was centrifuged at 1000 rpm for 10 minutes, and the supernatants were aspirated. The cells were reconstituted in fresh medium and counted. Then, 4 ml of the cell suspension in medium containing at 1.22×10^6 cells/ml were mixed with an additional 1 ml of medium. Next, 0.5 ml/well of the resulting cell suspension was added to wells in a 24-well culture plate (about 500,000 cells/well). The cells were treated as indicated in Table 5 below and incubated for 24 hours at 37° C., with or without 5% CO2. The supernatants were removed from the wells and centrifuged to remove debris. Next, the supernatants were analyzed for erythropoietin (EPO) production. EPO was measured by ELISA using a kit obtained from R & D Systems, Minneapolis, Minn. (catalog no. DE900) following the manufacturer's instructions.
# NFκB = assay: Activated NFκB in TNFα- or VEGF-treated HIAECs (TransAM assay); type: cell-based; conditions: Homo sapiens, TNFα 10 ng/ml, Cpd II 15 μg/ml, LY 294002 10 μM, read-out: Percent Inhibition (NFκB)
# Description: Passage 8 (human iliac artery endothelial cells (HIAECs) (obtained from ATCC; catalog no. CC-2545) were grown to confluence in 25 cm^2 flasks in EGM-2 medium. Eighteen hours prior to the experiment, the medium was replaced with EGM-2 medium containing 0.1% FCS plus heparin, GA1000 (gentamycin) and bovine pituitary extract (all from Cambrex) to place the cells in a resting state. To perform the experiment the medium was aspirated from the flasks, and the following additives were added to the flasks in fresh medium (total volume of 5 ml/flask): 15 μg/ml of the compound of formula II (Cpd II) or 10 μM LY 294002. The flasks were incubated 2 hours at 37° C., 5% CO2. After this incubation, VEGF or TNFα was added to give a final concentration 10 ng/ml, and the flasks were incubated for an additional 30 minutes. Then, the amount of NFκB was determined using a TransAM™ NFκB p65/NFκB p50 Transcription Factor Assay Kit and a Nuclear Extract Kit from Active Motif North America, Carlsbad, Calif., as described in Example 12.
# TCR-positive cells = assay: Annexin staining of TCR-positive cells (flow cytometry, cell death); type: cell-based, human; conditions: PHA plus dexamethasone 10 μM
# Description: After this incubation, PHA was added to give a final concentration of 5 μg/ml, and the cells were incubated for an additional 72 hours at 37° C., 5% CO2. All cultures were performed in triplicate. Cells were then removed by centrifugation at 1000 rpm for 10 minutes.
# The cells were further analyzed by flow cytometry Annexin was used to determine populations of dead or dying cells. Anti-CD69 antibody was used to establish the level of cellular activation. Antibody to T-cell receptor αβ (TCR) was also used. Recombinant Annexin 5 (PE and FITC conjugates) and the antibodies were all purchase from Caltag (Burlingham, Calif.) and used following the manufacturer's recommendations.
# IL-8 = IL-8 release from LPS-stimulated THP-1 monocytes (ELISA); type: cell-based; conditions: THP-1, LPS 200 ng/ml, 24 hours; Cpd II 15 μg/ml, Dex 10 μM
# Description: (§1) THP-1 is a monocyte cell line obtained from American Type Culture Collection (ATCC) (catalog no. TIB-202). […] After 1 hour, lipopolysaccharide (LPS) (obtained from Sigma) was added to the cultures to give a final concentration of 200 ng/ml, and the cells were then incubated for an additional 4 hours or for an additional 24 hours. After the incubation, the cells were centrifuged, and the supernatants were collected. The concentrations of IL-8 and TNFα in the supernatants were determined by ELISA.
# The concentrations of IL-8 in the supernatants were determined by ELISA performed as described in Example 4.
# TNFα = TNFα release from LPS-stimulated THP-1 monocytes (ELISA); type: cell-based; conditions: THP-1, LPS 200 ng/ml, 24 hours; Cpd II 15 μg/ml, Dex 10 μM
# Description: as §1
# The TNFα ELISA was performed as described in Example 2.
smiles,measurement,setting,value
"COC(=O)C(c1ccccc1)C1CCCCN1 (single isomer, unassigned) [threo diastereomer]",potency relative to the erythro diastereomer,[1],about 80 times
"O=c1cc(N2CCOCC2)oc2c(-c3ccccc3)cccc12 [LY 294002, reference compound]",Mean Units/ml EPO,erythropoietin (EPO),52.99 ± 1.04 Units/ml
same,inhibition at 10 µM,NFκB,10%
"C[C@@H]1C[C@H]2[C@@H]3CCC4=CC(=O)C=C[C@]4(C)[C@@]3(F)[C@@H](O)C[C@]2(C)[C@@]1(O)C(=O)CO [dexamethasone, reference compound]",Annexin staining of TCR-positive cells,TCR-positive cells,48%
same,Mean IL-8 Concentration,IL-8,2300.00 ± 283.41 pg/mL
same,Mean TNFα Concentration,TNFα,94.759 ± 8.755 pg/mL
